In the NIST ThermoML archive (doi:10.1021/je800849s):
Numbers after ± are expanded uncertainties.

Details: Liquid, Closed cell (Static) method

For `CCC` [propane], the “vapor or sublimation pressure” value (263.3 K) was 344 ± 1 kPa, the “vapor or sublimation pressure” value (283.25 K) was 639 ± 2 kPa and the “vapor or sublimation pressure” value (291.22 K) was 795 ± 3 kPa. For the same molecule, the “vapor or sublimation pressure” value (296.23 K) was 906 ± 3 kPa, the “vapor or sublimation pressure” value (308.21 K) was 1221 ± 4 kPa and the “vapor or sublimation pressure” value (323.19 K) was 1715 ± 5 kPa.
